IC50 and IC90 data for 35 molecules are collected here from ChEMBL document CHEMBL4483862, “Open-source discovery of chemical leads for next-generation chemoprotective antimalarials” (2018).

The term IC50 denotes the point on the concentration scale where inhibition reaches its midpoint. By IC90 is commonly meant the concentration needed for an effect of 90%.

The test system of this assay is Plasmodium berghei. The experiment in a line: Luciferase/luciferin-expressing antifolate-resistant parasites were used to infect a culture of HepG2 cells that were pre-incubated with compounds. Infected hepatocytes emit light due to the luciferase reaction. Assay results are presented as the percent inhibition of light emission compared to control. […]. Format: functional. The conditions noted are these: sporozoite; for IC90: read-out: LUCIFERASE INFECTION ASSAY - IC90.

Where [1] appears, read: read-out: LUCIFERASE INFECTION ASSAY - IC50.

For the molecule `O=[N+]([O-])c1ccc(SCCO)c2nonc12`, the IC90 was 12.8 µM. Moreover, the IC50 (HEPG2TOX_HILL_SLOPE 4.76, HEPG2TOX_R_SQUARED 0.8, PBLUC_HILL_SLOPE 15.1, PBLUC_R_SQUARED 0.318, read-out: LUCIFERASE INFECTION ASSAY - IC50) was 11 µM.

Regarding `Oc1cccc(-c2cnc3cnc(-c4ccc(CNc5ccccc5)cc4)cn23)c1`, the IC90 was found to be 2.92 µM. For the same molecule, the IC50 (FFLUC_HILL_SLOPE 1.01, FFLUC_R_SQUARED 0.213, PBLUC_HILL_SLOPE 39.2, PBLUC_R_SQUARED 0.71, read-out: LUCIFERASE INFECTION ASSAY - IC50) is 2.76 µM.

As to `COc1ccc(O)c(C(=O)c2cc(Cl)c3nc4ccccc4c(=O)n3c2)c1`, the IC90 was 0.494 µM. For the same molecule, the IC50 (PBLUC_HILL_SLOPE 1.52, PBLUC_R_SQUARED 0.671, read-out: LUCIFERASE INFECTION ASSAY - IC50) stood at 0.117 µM.

As to `COc1ccc(C(=O)Nc2ccc3nc(-c4ccccc4)nn3c2)cc1OC`, the IC90 is over 10 µM. Also, the IC50 under setting [1] was over 10 µM.

Consider `Cn1cc(-c2cn3c(-c4ccc5c(ccn5C)c4)cnc3cn2)cn1`, for which the IC90 is 1.47 µM. Under “HEPG2TOX_HILL_SLOPE 1.22, HEPG2TOX_R_SQUARED 0.939, PBLUC_HILL_SLOPE 1.34, PBLUC_R_SQUARED 0.885, read-out: LUCIFERASE INFECTION ASSAY - IC50”, the IC50 amounted to 0.287 µM.

Consider `COCCNc1cc(C(C)C)nc2c(-c3ccccc3)cnn12`, for which the IC90 is over 10.6 µM. Moreover, the IC50 (PBLUC_HILL_SLOPE 1.73, PBLUC_R_SQUARED 0.539, read-out: LUCIFERASE INFECTION ASSAY - IC50) turned out to be 3.04 µM.

Take `COc1ccc2c(c1)C(=O)C(=O)N2Cc1ccccc1Cl`: the IC90 was over 10.9 µM. In addition, the IC50 (FFLUC_HILL_SLOPE 0.896, FFLUC_R_SQUARED 0.182, read-out: LUCIFERASE INFECTION ASSAY - IC50) was over 10.9 µM.

For the molecule `CN(C)S(=O)(=O)c1ccc(CNc2ccnc3cc(Cl)ccc23)s1`, the IC90 was found to be 3.6 µM. Where the note is “PBLUC_HILL_SLOPE 38.6, PBLUC_R_SQUARED 0.0785, read-out: LUCIFERASE INFECTION ASSAY - IC50”, the IC50 is 3.4 µM.

As to `CC1CC1c1ccc(/C=C/C(=O)NNC(=S)NCC2CCCO2)o1` (stereo not given), the concentration for an effect of 90% (IC90) was 3.79 µM. Also, the IC50 (HEPG2TOX_HILL_SLOPE 2.34, HEPG2TOX_R_SQUARED 0.989, PBLUC_HILL_SLOPE 14.4, PBLUC_R_SQUARED 0.432, read-out: LUCIFERASE INFECTION ASSAY - IC50) was found to be 3.25 µM.

Consider `Cc1nccc(-c2ccc(NC(=O)c3cc(S(=O)(=O)NCc4ccccc4)ccc3C)cc2)n1`, for which the concentration for an effect of 90% (IC90) was over 10 µM. The IC50 (PBLUC_HILL_SLOPE 8.64, PBLUC_R_SQUARED 0.681, read-out: LUCIFERASE INFECTION ASSAY - IC50) is 8.33 µM.

Turning to `O=C(NNC(=S)NC(=O)c1cn(-c2ccccc2)nc1-c1ccc(Br)cc1)c1ccncc1`, the IC90 stood at 3.48 µM. The IC50 (HEPG2TOX_HILL_SLOPE 6.43, HEPG2TOX_R_SQUARED 0.426, PBLUC_HILL_SLOPE 13.5, PBLUC_R_SQUARED 0.624, read-out: LUCIFERASE INFECTION ASSAY - IC50) was found to be 2.96 µM.

For `Cc1c(C#N)nn(-c2cccc(Cl)c2)c(=O)c1C#N`, the IC90 was over 12.2 µM. The IC50 under setting [1] is over 12.2 µM.

For `COC(=O)c1ccc(/C=C/C(=O)c2ccccc2F)cc1`, the concentration for an effect of 90% (IC90) was over 10 µM. Under “HEPG2TOX_HILL_SLOPE 28.5, HEPG2TOX_R_SQUARED 0.619, read-out: LUCIFERASE INFECTION ASSAY - IC50”, the IC50 is over 10 µM.

`CCC(C)(C)c1ccc(Oc2ccc(NC(=O)CN3CCN(c4ccccc4O)CC3)cc2)cc1`: the IC90 is over 10 µM. Besides, for the setting “HEPG2TOX_HILL_SLOPE 8.11, HEPG2TOX_R_SQUARED 0.399, read-out: LUCIFERASE INFECTION ASSAY - IC50”, the IC50 is over 10 µM.

Take `CC(c1ccc(-n2cncn2)cc1)N(C)c1ncnc2ccsc12` (stereo not given): the IC90 is over 10 µM. Moreover, the 50% inhibitory concentration (IC50) (HEPG2TOX_HILL_SLOPE 9.54, HEPG2TOX_R_SQUARED 0.431, PBLUC_HILL_SLOPE 1.32, 1.56, PBLUC_R_SQUARED 0.780, 0.216, read-out: LUCIFERASE INFECTION ASSAY - IC50) came out at 3.71 µM.

As to `COc1ccc(C(=O)/C=C/c2cc(Br)c(OCC(=O)N(C)C)c(OC)c2)c(OC)c1`, the IC90 stood at 4.46 µM. Also, the IC50 (HEPG2TOX_HILL_SLOPE 1.45, HEPG2TOX_R_SQUARED 0.95, PBLUC_HILL_SLOPE 1.66, PBLUC_R_SQUARED 0.857, read-out: LUCIFERASE INFECTION ASSAY - IC50) worked out at 1.19 µM.

On to `N#CC(=C1SCCCCS1)S(=O)(=O)c1ccccc1`, for which the IC90 was over 10.6 µM. In addition, the IC50 under setting [1] is over 10.6 µM.

Consider `COc1cc(C(=O)Nc2cccc(-c3nc4ccccc4[nH]3)c2)cc(Cl)c1OC`, for which the IC90 turned out to be 8.28 µM. Under “HEPG2TOX_HILL_SLOPE 11, HEPG2TOX_R_SQUARED 0.706, PBLUC_HILL_SLOPE 2.74, PBLUC_R_SQUARED 0.344, read-out: LUCIFERASE INFECTION ASSAY - IC50”, the IC50 stood at 3.71 µM.

For the molecule `NS(=O)(=O)c1ccc(CCNC(=O)COc2ccccc2Cc2ccccc2)cc1`, the IC90 worked out at 9.31 µM. In addition, the IC50 (PBLUC_HILL_SLOPE 4.18, PBLUC_R_SQUARED 0.0848, read-out: LUCIFERASE INFECTION ASSAY - IC50) is 5.51 µM.

Take `CC(=O)c1cc2c(cc1NC(=O)c1cccc(S(=O)(=O)N3c4ccccc4CC3C)c1)OCO2` (stereo not given): the IC90 was over 10 µM. Moreover, the IC50 under setting [1] is over 10 µM.

With `CCOC(=O)c1c[nH]c2cc(Cl)cc(Cl)c2c1=O`, the IC90 was over 11.5 µM. The IC50 under setting [1] is over 11.5 µM.

As for `CN(C)c1ccc(CNCCC(c2ccc(F)cc2)c2ccco2)cc1` (stereo not given), the IC90 came out at 1.83 µM. Also, the IC50 (HEPG2TOX_HILL_SLOPE 13.3, HEPG2TOX_R_SQUARED 0.508, PBLUC_HILL_SLOPE 4.7, PBLUC_R_SQUARED 0.649, read-out: LUCIFERASE INFECTION ASSAY - IC50) is 1.15 µM.

As for `Clc1ccc(-c2nc(-c3ccccc3)c(-c3ccccc3)n2CCc2ccc(Cl)cc2Cl)cc1`, the IC90 is over 10 µM. In addition, the IC50 (PBLUC_HILL_SLOPE 13, PBLUC_R_SQUARED 0.179, read-out: LUCIFERASE INFECTION ASSAY - IC50) was 9.63 µM.

Take `CCNC(=O)C(C)Nc1ncnc2scc(-c3ccc(OC)cc3)c12` (stereo not given): the IC90 is 9.59 µM. Besides, the IC50 (FFLUC_HILL_SLOPE 11.3, FFLUC_R_SQUARED 0.625, HEPG2TOX_HILL_SLOPE 3.17, HEPG2TOX_R_SQUARED 0.973, PBLUC_HILL_SLOPE 4.87, PBLUC_R_SQUARED 0.647, read-out: LUCIFERASE INFECTION ASSAY - IC50) came to 6.11 µM.

`CC(NC1CCCCCC1)C(=O)c1c[nH]c2ccccc12` (stereo not given): the IC90 is over 10 µM. In addition, the IC50 under setting [1] was over 10 µM.

In the case of `COC(=O)c1ccc(C(=O)OC)c(N2C(=O)C=CC2=O)c1`, the IC90 was over 11.4 µM. Also, the IC50 (FFLUC_HILL_SLOPE 12.8, FFLUC_R_SQUARED 0.0109, PBLUC_HILL_SLOPE 0.51, PBLUC_R_SQUARED 0.565, read-out: LUCIFERASE INFECTION ASSAY - IC50) is 0.503 µM.

As for `CC(C)Cc1ccc(C(=O)CC(Sc2ccccc2N)c2ccc(C(F)(F)F)cc2)cc1` (stereo not given), the IC90 was 0.452 µM. The IC50 (FFLUC_HILL_SLOPE 10.1, FFLUC_R_SQUARED 0.429, PBLUC_HILL_SLOPE 1.99, PBLUC_R_SQUARED 0.752, read-out: LUCIFERASE INFECTION ASSAY - IC50) is 0.15 µM.

Regarding `Cc1ccc2nc(NC(=O)C(C)Oc3ccccc3)c(C(=O)NC3CCCCC3)n2c1` (stereo not given), the IC90 was over 7.85 µM. For the same molecule, the IC50 (HEPG2TOX_HILL_SLOPE 7.98, HEPG2TOX_R_SQUARED 0.0955, PBLUC_HILL_SLOPE 9.58, PBLUC_R_SQUARED 0.283, read-out: LUCIFERASE INFECTION ASSAY - IC50) was determined as 6.26 µM.

`CCn1c(=O)[nH]c(=O)c2cc(C(=O)Nc3ccc(Oc4ccccc4)cc3)cnc21`: the IC90 was over 10 µM. Further, where the note is “PBLUC_HILL_SLOPE 2.4, PBLUC_R_SQUARED 0.0614, read-out: LUCIFERASE INFECTION ASSAY - IC50”, the concentration for half-maximal inhibition (IC50) came out at 6.87 µM.

In the case of `O=C(Cc1ccccc1)NCC(=O)N1CCOC(c2ccccc2)C1` (stereo not given), the IC90 was over 10 µM. Moreover, the IC50 under setting [1] is over 10 µM.

Turning to `CNc1nc2cnc(Nc3cccc(NC(C)=O)c3)cc2n1-c1cccc(F)c1`, the IC90 was over 10 µM. In addition, where the note is “HEPG2TOX_HILL_SLOPE 2.07, HEPG2TOX_R_SQUARED 0.855, PBLUC_HILL_SLOPE 1.72, PBLUC_R_SQUARED 0.4, read-out: LUCIFERASE INFECTION ASSAY - IC50”, the IC50 was 3.92 µM.

Consider `CC(C)Cn1c(SC2CCOC2=O)nc2cc(Cl)ccc2c1=O` (stereo not given), for which the IC90 was over 10 µM. Further, under setting [1], the IC50 is over 10 µM.

In the case of `Cc1ccc(N(CC(=O)Nc2ccc(Cl)cc2)S(C)(=O)=O)cc1Cl`, the IC90 is over 8.52 µM. Besides, for the setting “HEPG2TOX_HILL_SLOPE 0.0682, HEPG2TOX_R_SQUARED 0.0747, PBLUC_HILL_SLOPE 6.57, PBLUC_R_SQUARED 0.017, read-out: LUCIFERASE INFECTION ASSAY - IC50”, the IC50 was over 8.52 µM.

With `CCCCOCCCNC(=O)c1cc2ccccc2cc1OC`, the IC90 was over 10 µM. Further, under “PBLUC_HILL_SLOPE 2.53, PBLUC_R_SQUARED 0.451, read-out: LUCIFERASE INFECTION ASSAY - IC50”, the IC50 turned out to be 6.56 µM.

With `Cc1nn2c(=O)cc(-c3ccccc3)[nH]c2c1-c1ccc(F)cc1`, the IC90 came out at 1.16 µM. Moreover, for the setting “HEPG2TOX_HILL_SLOPE 1.12, HEPG2TOX_R_SQUARED 0.564, PBLUC_HILL_SLOPE 22.2, PBLUC_R_SQUARED 0.649, read-out: LUCIFERASE INFECTION ASSAY - IC50”, the IC50 was determined as 1.05 µM.
